Active and inactive are the calls of the source. No cut-off for these calls is given here.
Each compound was assayed on Hepatitis C virus (assay: Antiviral activity against HCV infected in human HuH7 cells assessed as inhibition of RNA replication after 72 hrs by luciferase reporter gene assay). Conditions: Hepacivirus hominis; Huh-7.
Assay type: functional, organism-based

SMILES | inhibition
Cc1c(-c2ccccn2)n(C2CCCC2)c2ccc(C(=O)NC3(c4nc5cc(/C=C/C(=O)O)ccc5n4C)CCC3)cc12 | Active
Cn1c(C2(NC(=O)c3ccc4c(C5CCCC5)c(-c5ccccn5)n(C)c4c3)CCC2)nc2cc(/C=C/C(=O)O)ccc21 | Active
Cn1c(-c2cnccn2)c(C2CCCC2)c2ccc(C(=O)NC3(c4nc5ccc(/C=C/C(=O)O)cc5n4C4CCC4)CCCC3)cc21 | Active
C/C(=C\c1ccc2nc(C3(NC(=O)c4ccc5c(C6CCCC6)c(-c6cccc7cc(C)[nH]c67)n(C)c5c4)CCC3)n(C)c2c1)C(=O)O | Active

The compounds below were run on Hepatitis C virus (assay: Antiviral activity against HCV genotype 1b infected in human HuH7 cells assessed as total cellular RNA after 5 days by RT-PCR analysis). Conditions: Huh-7, 120 h.
Assay type: functional, organism-based, Hepacivirus hominis

EC50 [nM] | SMILES
100 | COC(=O)N[C@@H](CC(C)C)C(=O)N1CCC[C@H]1c1ncc(-c2ccc(-c3ccccc3)cc2)[nH]1
< 1 | COC(=O)N[C@H](C(=O)N1C[C@@H](SC)C[C@H]1c1ncc(-c2ccc(-c3ccc(-c4cnc([C@@H]5C[C@H](SC)CN5C(=O)[C@@H](NC(=O)OC)c5ccccc5)[nH]4)cc3)cc2)[nH]1)c1ccccc1
1 | C#Cc1ccc(-c2cn(-c3ccc(-c4cnc(-c5cnc([C@@H]6CCCN6C(=O)[C@@H](NC(=O)OC)C(C)C)[nH]5)[nH]4)cc3)nn2)cc1

From ChEMBL document CHEMBL3124883, “Halting HCV Replication with NS5A Inhibitors and NS5B Polymerase Inhibitors: Effective New Treatments of HCV Infection” (ACS Med Chem Lett, 2014)
